Reference: patent publication US6083692A, “Method of detecting the presence and measuring the quantity of biological polymers” (American Home Products Corporation, priority 1996, dated 2000)

Test system: ATP-dependent exonuclease
Assay: Coupled spectrophotometric assay: ADP formation coupled to NADH oxidation (PK/LDH), read at 340 nm
Assay type: biochemical
Conditions: for Product inhibition: observed only upon >50% conversion of the substrates ATP and DNA; for Relative rate of ATP hydrolysis: alone
Method: Standard curves were routinely generated by using 0, 2, 6, 10, 14 and 18 μL of 1 ng/μL substrate DNA. Eighty μl of the reaction mix was incubated with up to 20 μl of DNA and dH2 O (total volume of 100 μl) at 25° C. The reactions were quenched with 15 μl of 200 mM EDTA, pH 8.0/NaOH, following a 30 or 40 min incubation. The reactions were read at 340 nm.
The 10× assay buffer contained tris-acetate (pH 7.8/acetate at 25° C.); 330 mM, potassium acetate; 660 mM, magnesium acetate; 100 mM, dithiothreitol; 5 mM, Triton X-100, 0.1%. The reaction mix was prepared as follows, 10× buffer; 0.250 ml, NADH; 0.250 ml (0.64 μmoles), PEP; 25.0 μl (2.4 μmoles), ATP; 75.0 μl (2.5 μmoles), H2 O; 1.305 ml, PK/LDH enzyme mix; 75.0 μl, ATP dependent DNAase; 20.0 μl (200 units).
An enzyme kinetics program ENZFITTER (Elsevier Biosoft) was used to generate a plot (A340 versus ng DNA) of the standard. The slope was calculated following a regression analysis. A similar plot of the sample (A340 versus μL DNA) was also prepared. The slope determined from the regression analysis was used to calculate the concentration of linear DNA in the sample.
A reliable method for quantification requires that the concentration of products formed in the reaction is linear with time, concentrations of enzyme and of substrate. In the present assay, ATP hydrolysis was linear with time. The experiments that generated the data shown in FIG. 2 are a coupled spectrophotometric assay in which the linear DNA content was varied from 2 to 20 ng. Twenty μL aliquots were removed at various times (10, 20, 30 & 60 min), and quenched by mixing with 4 μl of 200 mM EDTA as described in Materials and Methods. The samples were further diluted to 100 μl with water, to facilitate determination of optical density. ATP hydrolysis was linear with time and at least up to 40% substrate converted to products (<0.4 mM ADP and Pi). ADP formation was also linear with several enzyme concentrations. The experiments that generated the data shown in FIG. 3 are a coupled assay system in which the amount of enzyme added to the reaction was varied. The enzyme was diluted using 1× reaction buffer and left on ice prior to its addition to the reaction mixture. The reaction was quenched at 15 min, with EDTA as described in Materials and Methods. ADP formation was linear with several enzyme concentrations at least until 0.36 mM ADP and Pi was formed in the reaction. The reaction rates were slower when ~60% of the substrates (100 ng DNA and 1 mM ATP) were converted to products. […] The Vmax was 30 nmoles/min/mg enzyme. In the experiments that generated the data in FIG. 4, the reaction was carried out in a coupled assay as described in the Methods. The reactions were initiated by the addition of enzyme. Following initiation of the 500 μl reaction; 100 μl samples were withdrawn at 1, 2, 5 and 10 min and quenched with 10 μl of 200 mM EDTA. Initial velocities were derived from the reaction rate, obtained by linear regression analysis of absorbances at 340 nm recorded at various times during the reaction. […] The data reported in FIG. 5A is replot of FIG. 2 as a function of linear DNA content in the reaction mixture. In the experiments which generated these date, the 20 μl aliquots were quenched with EDTA as described above, at various times of incubation. […] The results are consistent with the potential use of this enzyme to quantify linear DNA content.

[1] = 50 ng linear DNA as substrate, +10 mM EDTA or +1 mM citrate

In the case of `Nc1ncnc2c1ncn2[C@@H]1O[C@H](COP(=O)(O)OP(=O)(O)O)[C@@H](O)[C@H]1O` [ADP, adenosine diphosphate], the Product inhibition is reported as “Product inhibition”.
In the case of `O=C(O)CC(O)(CC(=O)O)C(=O)O` [citrate], the “Relative rate of ATP hydrolysis” value [1] is reported as 0.686, the “Enhancement of enzymatic activity” value (citrate at 50 μM) is reported as roughly 50% and the “Inhibition of ATP hydrolytic activity” value (citrate at 1 mM in the presence of 10 mM Mg++) is reported as 30%.
For `O=P(O)(O)O` [Pi, inorganic phosphate], the Product inhibition was “Product inhibition”.
For `O=C(O)CN(CCN(CC(=O)O)CC(=O)O)CC(=O)O` [EDTA], the “Relative rate of ATP hydrolysis” value [1] was 0.008 and the “Effect on the enzymatic reaction” value (at molar equivalent to the divalent cation used in the assay) was “quenched the enzymatic reaction”.
For `CCO` [ethanol], the “Relative rate of ATP hydrolysis” value (5 ng linear DNA as substrate, +200 ng t-RNA, +500 ng circular DNA or +5% ethanol) was 0.86, the “Relative rate of ATP hydrolysis” value (10 ng linear DNA as substrate, +200 ng t-RNA, +500 ng circular DNA or +5% ethanol) was 1.78 and the “Relative rate of ATP hydrolysis” value (15 ng linear DNA as substrate, +200 ng t-RNA, +500 ng circular DNA or +5% ethanol) was 2.64. For the same compound, the “Effect on enzymatic activity” value (concentrations beyond 4% ethanol) was “severely inhibited”.
